From US20080267935A1, “AraC in combination with a cytokine-secreting cell and methods of use thereof” (Cell Genesys, Inc., priority 2007, published 2008)
Where two headings read alike, the source gives them in different places.

Legend:
[1] = set-up: species or system mice; settings: mouse, in vivo
Description: Hematologic and Phenotypic Analysis. Mice were injected intraperitoneally with AraC using the treatment regimen described below. Peripheral blood was collected by retro-orbital puncture into EDTA-coated capillary tubes on days 1, 2, 3, 4, 6, 8 and 11. Hematologic analysis was performed by IDEXX pre-clinical Research Services (West Sacramento, Calif.).
Prior to conducting the in vivo efficacy studies in the leukemia tumor models, the hematological toxicity of AraC was determined. The animals received three i.p. injections of 100 mg/kg AraC (volume of injection: 200 μl) in 10 hour-increments. This treatment regimen is equal to a total dose of 900 mg/m^2 and is within the total dose range of 700 to 1400 mg/m^2 used clinically in human patients. Neutropenia and lymphopenia are known to be the primary dose-limiting toxicity observed in patients, so AraC treated mice were monitored for absolute neutrophil and lymphocyte counts. The results are shown in FIG. 2A and FIG. 2B, respectively. After the three AraC administrations, peripheral blood was collected by retro-orbital puncture into EDTA-coated capillary tubes on days 1, 2, 3, 4, 6, 8 and 11 and analyzed for neutropenia. The absolute neutrophil count in the animals dropped to 45 neutrophils/μl, by day 4, rebounded to control level at 600 neutrophils/μl, by day 6 and remained at a steady level of around 600 neutrophils/μl, thereafter (FIG. 2A), which is similar to untreated control animals.

[2] = system: C1498-luc tumor cells; assay: C1498-luc acute myeloid leukemia tumor model, survival and tumor burden; format: in vivo, C57BL/6 mice
Description: To assess the in vivo progression of systemic disease, 2.5×10^4 of C1498-luc cells were injected intravenously via tail vein into C57BL/6 mice, their syngeneic host, and the mice were examined every few days for the presence of luminescent signal via live imaging (FIG. 1A). […] A total photon count of 5×10^8 from an individual tumor bearing animal was used as the end point of life expectancy.
The efficacy of the combination of cytosine arabinoside (AraC) and GM-CSF secreting cells was evaluated by carrying out animal studies in the syngeneic C1498-luc tumor model. In this model, following challenge with C1498-luc tumor cells as described above, the mice were randomized into control and individual treatment groups, as detailed in the examples. For anti-tumor memory assessment, animals which had previously received AraC in combination with GM-CSF-secreting cells were rechallenged with a lethal dose of C1498-luc cells approximately 100 days after receiving the combination therapy. A typical study in the C1498-luc tumor model makes use of at least 6 and generally 10-15 mice per group in order to obtain statistically significant results. Statistical significance is evaluated using the Student's t-test.
Tumor Model. Female C57Bl/6 mice were challenged with C1498-luc cells via intra-tail-vein injections with 2.5×10^4 inocula. The mice were prepared for in vivo bioluminescence imaging 5 to 10 minutes post injection to confirm the initial trafficking of the tumor cells from tail vein to the lungs. Briefly, the mice were injected i.p. with 1.5 mg/g luciferin substrate (Xenogen Corp., Alameda, Calif.). Fifteen minutes later, the mice were anesthetized for in vivo bioluminescence imaging analysis. […] The animals were monitored by in vivo imaging every 5 to 7 days throughout the study to monitor the systemic progression of the tumor. Individual animals were euthanized when in vivo total photon counts exceeded 5×10^8 and/or when determined to be clinically paralyzed.
In Vivo Treatment. […]

[3] = system: Acute myeloid leukemias (AMLs); settings: cited from earlier work; for complete remissions: remission induction

In the case of `Nc1ccn([C@@H]2O[C@H](CO)[C@@H](O)[C@@H]2O)c(=O)n1` [AraC, 1-β-D-arabinofuranosylcytosine], the absolute neutrophil count [1] is reported as 600 neutrophils/μl, the “drop of lymphocyte counts” value [1] is reported as “greater than 40%” and the absolute neutrophil count ([1]; ip, 100 mg/kg) is reported as 45 neutrophils/μl. The “recovery of lymphocyte counts” value ([1]; ip, 100 mg/kg) was “rebounded by day 6”, the “mice surviving for longer than 150 days post-challenge” value ([2]; C1498-luc tumor bearing mice) was 30% and the “Number of tumor free animals 150 days post challenge” value ([2]; monotherapy) was 0/10. For the same molecule, the “Median Survival Time (MST)” value ([2]; monotherapy, AraC 3 i.p. injections of 100 mg/kg one day post challenge, or 1×10^6 irradiated C1498.GM s.c. day 7) was 61 days, the dose-limiting toxicities ([3]; patients) was “severe neutropenia and lymphopenia” and the complete remissions ([3]; patients older than 60) was −50%. The complete remissions ([3]; younger adults) was ~75%.
